The values below come from US20240201169A1, “METHODS OF THREE-DIMENSIONAL TUMOR SPHEROID MICROARRAY FOR HIGH-THROUGHPUT, HIGH-CONTENT IMMUNE CELL-MEDIATED CYTOTOXICITY” (RENSSELAER POLYTECHNIC INSTITUTE, priority 2021, published 2024).

Data set [1] concerns MDA-MB-231 spheroids. Put plainly: 3D tumor spheroid 330-micropillar/microwell cytotoxicity (NK ADCC/drug combination, paclitaxel dose response). The format is cell-based. The conditions noted are these: for target cell cytotoxicity of combination: combination of NK92-CD16 at E:T 10:1, Trastuzumab and drug (3.5 nM doxorubicin, p<0.01; 7.0 nM paclitaxel, p<0.05). The protocol: (§1) High-content imaging of 3D tumor spheroid micropillar array for effector cell-mediated cytotoxicity including NK ADCC/drug combination. Uniform-sized 3D spheroids in the 330-micropillar array were used to perform high-throughput ADCC on three different cancer cell lines; MiaPaCa-2, MCF7 and MDA-MB-231, the latter a triple negative breast cancer cell line, in the presence and absence of two chemotherapeutic drugs, doxorubicin and paclitaxel. The ADCC screen was performed by spotting 250 nL onto polydopamine-coated micropillars including 2500 target cancer cells per spot. The cells were cultured for 3 days and then treated with NK92-CD16 cells. […] As a control, one block of spots was reserved for exposure of target cells with both antibody and the drugs but without NK92-CD16 cells. The micropillar/microwell sandwich platform was incubated for 24 h upside-down to allow for target cell killing on culture day 3. The next day, the chips were then washed, stained with Hoechst 33342, Calcein-AM and Propidium Iodide, and imaged using the ASFA™ scanner.
(§2) There was interest in whether MDA-MB-231, which is a triple negative breast cancer cell line having reduced expression of estrogen receptor (ER), progesterone receptor and HER252, was susceptible to cell death upon combination exposure of paclitaxel, Atezolizumab and NK92-CD16 cells. Triple negative breast cancers are particularly aggressive to treat due to very low expression levels of ER, PR and HER253. To test this, the three target cancer cell lines were spotted onto the 330-micropillar platform to generate the corresponding 3D spheroids. […] The 3D spheroids on the micropillar chip were incubated for 24 h, and then stained and imaged.
3D experiments on 330-micropillar/microwell sandwich system. Polystyrene 330 micropillar chips (MBD Korea Co., South Korea) were coated with polydopamine, washed and dried until further use. The 330 well chips were UV-treated using a 96 W transilluminator (Syngene GVM-30) for 4 h to enhance surface hydrophilicity. Cancer cells were detached as described previously and mixed with high concentration growth factor-reduced Matrigel to obtain a final cell concentration of 1×10^7 cells/mL. Then, 250 nL of the Matrigel-cell mixture was spotted using the ASFA™ spotter onto the polydopamine coated 330 micropillar chips. The chips were incubated face down in a humidity chamber at 37° C. for 15 min to allow for gelation and then they were sandwiched with the corresponding 330 microwell chip including 3.6 μL of fresh medium per well. The chips were cultured for a period of 3 days prior to NK cell exposure. The cell growth medium on the chip was exchanged every 2 days. For cytotoxicity experiments, where the NK92-CD16 ratio was varied, 25 different conditions were tested (see Table 1 below), including a dead control (via addition of saponin).
(§3) Similarly, for the dose response experiments with paclitaxel, where the E:T ratio was fixed at 5:1, 25 different conditions including a dead cell control were evaluated, as shown in Table 2.
Unconjugated anti-HER2 antibody was used for experiments on 330 micropillar/microwell chips. […] The micropillar chip with target cells was then stamped onto the 330 microwell chip and incubated upside down for 24 h. […] The chips were subsequently washed in DPBS and imaged using an ASFA™ Cell Scanner (MBD Korea Co., South Korea) and quantitatively analyzed using cell analyzer software within the imaging system. […]

The subject of data set [2] is MCF7 spheroids. The format is cell-based. The settings on record: for target cell cytotoxicity of combination: combination of NK92-CD16 at E:T 10:1, Trastuzumab and drug (3.5 nM doxorubicin, p<0.01; 7.0 nM paclitaxel, p<0.05). The protocol:
as §1, §2
3D experiments on 330-micropillar/microwell sandwich system. Polystyrene 330 micropillar chips (MBD Korea Co., South Korea) were coated with polydopamine, washed and dried until further use. The 330 well chips were UV-treated using a 96 W transilluminator (Syngene GVM-30) for 4 h to enhance surface hydrophilicity. Cancer cells were detached as described previously and mixed with high concentration growth factor-reduced Matrigel to obtain a final cell concentration of 1×10^7 cells/mL. Then, 250 nL of the Matrigel-cell mixture was spotted using the ASFA™ spotter onto the polydopamine coated 330 micropillar chips. […]
as §3
(§4) Unconjugated anti-HER2 antibody was used for experiments on 330 micropillar/microwell chips. […] The chips were subsequently washed in DPBS and imaged using an ASFA™ Cell Scanner (MBD Korea Co., South Korea) and quantitatively analyzed using cell analyzer software within the imaging system. […]

Data set [3] deals with three target cancer cell lines (3D spheroids). The experiment in a line: cells. The settings on record: 24 h, read-out: EC50 (paclitaxel-induced cytotoxicity).
Excerpt: as §2
3D experiments on 330-micropillar/microwell sandwich system. Polystyrene 330 micropillar chips (MBD Korea Co., South Korea) were coated with polydopamine, washed and dried until further use. […]
as §3, §4

The subject of data set [4] is MiaPaCa-2 spheroids. The conditions noted are these: antibody 2.5 μg/mL with NK92-CD16 (5:1) and paclitaxel dose range, 24 h. The protocol:
as §1, with “The next day, the chips were then washed, stained with Hoechst 33342, Calcein-AM and Propidium Iodide, and imaged using the ASFA™ scanner.” left out
as §3, §4

The mark [5] stands for this setting: paclitaxel alone, spheroid culture.

Regarding `COc1cccc2c1C(=O)c1c(O)c3c(c(O)c1C2=O)C[C@@](O)(C(=O)CO)C[C@@H]3O[C@H]1C[C@H](N)[C@H](O)[C@H](C)O1` [doxorubicin], the “target cell cytotoxicity of combination” value in data set [1] (24 h) and in data set [2] (24 h) was “significantly more effective” throughout.

Usually EC50 stands for the concentration that produces a half-maximal response. With `CC(=O)O[C@H]1C(=O)[C@@]2(C)[C@H]([C@H](OC(=O)c3ccccc3)[C@]3(O)C[C@H](OC(=O)[C@H](O)[C@@H](NC(=O)c4ccccc4)c4ccccc4)C(C)=C1C3(C)C)[C@]1(OC(C)=O)CO[C@@H]1C[C@@H]2O` [paclitaxel], the EC50 in data set [3] is greater than 500 µM. In addition, the “target cell cytotoxicity of combination” value in data set [1] (24 h) and in data set [2] (24 h) was “significantly more effective” throughout. The “effectiveness as a cytotoxic agent” value in data set [1] (setting [5]) and in data set [2] (setting [5]) was “poorly effective” throughout. For the same compound, the “fold lower EC50 value for paclitaxel” value in data set [1] (paclitaxel in the presence of Atezolizumab 2.5 μg/mL along with NK92-CD16 (5:1), 24 h) is on record as “approximately 43 fold”; in data set [2] (paclitaxel with Trastuzumab 2.5 μg/mL and NK92-CD16 (5:1) vs absence of antibody and effector cells, 24 h), “approximately 1.8 fold”. Also, in data set [1] (paclitaxel in the presence of both Trastuzumab 2.5 μg/mL and NK92-CD16 (5:1), 24 h), the “cytotoxic effectiveness of condition” value is listed as “did not prove to be effective”.

On to Atezolizumab, for which, in data set [4], the inducing cytotoxicity result is given as “effective in inducing cytotoxicity”.
